Data published in ChEMBL document CHEMBL1201862, “PubChem BioAssay data set” (2004).
Active and inactive are the calls of the source.

Assays:
[1] = molecular target: T1, Heat shock factor protein 1 (Mus musculus, UniProt P38532); assay: inhibition of MG132-induced HSE-luciferase signal, confirmation, cell-based, NIH3T3, luminescence, dose retest (AID 2382); assay type: functional;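 also: NIH3T3 fibroblasts with HSF1-driven luciferase reporter stressed by proteasome inhibitor MG132; luminescence from HSF1-driven luciferase expression after 8 hours of MG132 stress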
T1 sequence (P38532 whole entry): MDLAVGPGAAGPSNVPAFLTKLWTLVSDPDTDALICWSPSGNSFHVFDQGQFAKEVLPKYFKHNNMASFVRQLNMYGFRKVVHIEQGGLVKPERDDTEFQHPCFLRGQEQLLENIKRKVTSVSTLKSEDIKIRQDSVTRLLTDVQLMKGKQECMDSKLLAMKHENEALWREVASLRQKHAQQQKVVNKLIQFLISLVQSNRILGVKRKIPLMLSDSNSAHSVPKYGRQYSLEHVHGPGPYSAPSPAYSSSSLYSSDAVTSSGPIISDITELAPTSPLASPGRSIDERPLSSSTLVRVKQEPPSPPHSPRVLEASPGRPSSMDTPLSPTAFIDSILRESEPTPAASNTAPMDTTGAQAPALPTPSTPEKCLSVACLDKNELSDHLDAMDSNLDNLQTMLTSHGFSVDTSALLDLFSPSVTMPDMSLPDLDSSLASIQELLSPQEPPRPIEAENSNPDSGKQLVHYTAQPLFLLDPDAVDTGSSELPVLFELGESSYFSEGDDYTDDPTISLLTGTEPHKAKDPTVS

[2] = HEp-2 cell cytotoxicity, dose response, cytotoxicity control for RSV inhibitor project, HTS (AID 2410); assay type: functional; settings: human respiratory syncytial virus
[3] = cytotoxicity toward NIH3T3 fibroblasts, dose response, counter-screen, cell-based, ATP luminescence, mouse fibroblasts (AID 2010); assay type: functional;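 also: cells exposed to compound for about 90 hours before reading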
[4] = inhibitors of intracellular T. cruzi replication, confirmation, NIH3T3 host cells, beta-gal luminescence (AID 2044); assay type: functional, cell-based;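 also: intracellular parasites grown in NIH/3T3 mouse fibroblasts as host cells; luminescent beta-galactosidase reporter signal from transgenic T. cruzi replicating inside host cells; inhibitors lower the luminescence signal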
[5] = molecular target: Cytochrome P450 3A4 (Homo sapiens, UniProt P08684);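 also: CYP3A4 tested as one member of a cytochrome P450 panel screen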
Chain of Cytochrome P450 3A4 (P08684 whole entry): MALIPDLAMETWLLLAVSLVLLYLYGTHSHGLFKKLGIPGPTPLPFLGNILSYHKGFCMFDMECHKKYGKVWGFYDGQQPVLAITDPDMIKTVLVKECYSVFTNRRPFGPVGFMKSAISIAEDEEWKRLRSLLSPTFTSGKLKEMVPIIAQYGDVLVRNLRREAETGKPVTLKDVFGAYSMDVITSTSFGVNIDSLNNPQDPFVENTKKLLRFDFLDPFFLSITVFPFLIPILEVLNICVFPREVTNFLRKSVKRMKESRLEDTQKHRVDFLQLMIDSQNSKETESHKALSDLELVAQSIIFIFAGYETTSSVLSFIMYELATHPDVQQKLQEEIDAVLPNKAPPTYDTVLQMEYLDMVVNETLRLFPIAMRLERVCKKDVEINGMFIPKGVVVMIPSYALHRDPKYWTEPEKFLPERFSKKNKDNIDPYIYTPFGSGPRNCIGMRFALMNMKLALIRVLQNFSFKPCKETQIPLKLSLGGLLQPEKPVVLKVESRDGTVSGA

[6] = molecular target: Cytochrome P450 2C19 (Homo sapiens, UniProt P33261); assay: Cytochrome panel assay with activity outcomes. Panel member name: p450-cyp2c19 Compounds with AC50 equal or less than 10 uM are considered active; assay type: functional; settings: read-out: AC50
Chain of Cytochrome P450 2C19 (P33261 whole entry): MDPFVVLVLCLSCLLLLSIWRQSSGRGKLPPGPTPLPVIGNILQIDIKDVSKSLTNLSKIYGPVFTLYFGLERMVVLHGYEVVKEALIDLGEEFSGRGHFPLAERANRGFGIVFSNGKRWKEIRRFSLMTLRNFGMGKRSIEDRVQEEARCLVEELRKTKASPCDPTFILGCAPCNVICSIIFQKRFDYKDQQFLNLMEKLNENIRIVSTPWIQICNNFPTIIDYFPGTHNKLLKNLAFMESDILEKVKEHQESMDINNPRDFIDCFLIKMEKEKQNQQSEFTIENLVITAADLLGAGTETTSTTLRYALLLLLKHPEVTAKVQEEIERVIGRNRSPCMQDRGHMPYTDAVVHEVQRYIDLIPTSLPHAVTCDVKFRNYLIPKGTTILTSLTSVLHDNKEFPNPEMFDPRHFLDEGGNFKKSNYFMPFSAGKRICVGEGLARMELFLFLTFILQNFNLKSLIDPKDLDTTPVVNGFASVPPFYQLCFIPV

[7] = molecular target: T2, Cytochrome P450 1A2 (Homo sapiens, UniProt P05177);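 also: PubChem cytochrome P450 panel assay, CYP1A2 panel member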
T2 sequence (P05177 whole entry): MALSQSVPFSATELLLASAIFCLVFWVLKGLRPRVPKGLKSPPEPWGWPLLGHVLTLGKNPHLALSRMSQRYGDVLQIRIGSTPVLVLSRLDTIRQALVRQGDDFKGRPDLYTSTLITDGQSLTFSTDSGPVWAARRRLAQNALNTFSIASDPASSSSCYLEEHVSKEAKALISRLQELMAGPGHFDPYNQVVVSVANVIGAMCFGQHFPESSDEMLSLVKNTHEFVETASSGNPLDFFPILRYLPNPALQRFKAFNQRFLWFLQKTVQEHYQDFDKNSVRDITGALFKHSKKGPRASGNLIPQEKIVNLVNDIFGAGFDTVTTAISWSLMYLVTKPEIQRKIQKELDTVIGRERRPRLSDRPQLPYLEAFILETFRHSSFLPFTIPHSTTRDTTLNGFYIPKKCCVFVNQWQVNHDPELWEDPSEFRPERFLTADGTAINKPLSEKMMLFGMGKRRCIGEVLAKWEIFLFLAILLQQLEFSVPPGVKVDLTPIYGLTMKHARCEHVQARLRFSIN

[8] = molecular target: Cytochrome P450 2D6 (Homo sapiens, UniProt P10635)
Chain of Cytochrome P450 2D6 (P10635 whole entry): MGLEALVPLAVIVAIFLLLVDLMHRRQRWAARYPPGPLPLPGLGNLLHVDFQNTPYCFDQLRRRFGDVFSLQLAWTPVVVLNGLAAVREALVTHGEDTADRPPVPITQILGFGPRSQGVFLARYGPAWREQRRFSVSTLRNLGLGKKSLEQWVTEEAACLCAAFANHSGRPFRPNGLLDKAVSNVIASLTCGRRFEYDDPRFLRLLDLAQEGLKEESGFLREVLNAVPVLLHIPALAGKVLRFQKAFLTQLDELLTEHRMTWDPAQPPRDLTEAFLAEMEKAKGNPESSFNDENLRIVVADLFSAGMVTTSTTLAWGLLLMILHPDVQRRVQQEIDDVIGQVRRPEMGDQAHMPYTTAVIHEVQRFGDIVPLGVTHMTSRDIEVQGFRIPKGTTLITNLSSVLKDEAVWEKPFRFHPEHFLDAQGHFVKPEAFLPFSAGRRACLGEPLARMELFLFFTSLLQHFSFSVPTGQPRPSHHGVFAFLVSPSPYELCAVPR

[9] = tested on: Streptococcus sp. 'group A'; assay: growth inhibition of control SK(-) GAS strain, dose response, counter-screen for streptokinase expression inhibitor project, luminescence, kanamycin, BacTiterGlo, confirmation (AID 1900); assay type: functional, organism-based
[10] = molecular target: T3, Streptokinase A (Streptococcus pyogenes serotype M1, UniProt P10520); assay: S. pyogenes streptokinase expression inhibitors, potency, dose response, plasminogen activation absorbance, OD405 (AID 1914); assay type: functional, Streptococcus pyogenes M1 GAS;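 also: secreted streptokinase activity via plasminogen activation per viability signal from cell pellet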
T3 sequence (P10520 whole entry): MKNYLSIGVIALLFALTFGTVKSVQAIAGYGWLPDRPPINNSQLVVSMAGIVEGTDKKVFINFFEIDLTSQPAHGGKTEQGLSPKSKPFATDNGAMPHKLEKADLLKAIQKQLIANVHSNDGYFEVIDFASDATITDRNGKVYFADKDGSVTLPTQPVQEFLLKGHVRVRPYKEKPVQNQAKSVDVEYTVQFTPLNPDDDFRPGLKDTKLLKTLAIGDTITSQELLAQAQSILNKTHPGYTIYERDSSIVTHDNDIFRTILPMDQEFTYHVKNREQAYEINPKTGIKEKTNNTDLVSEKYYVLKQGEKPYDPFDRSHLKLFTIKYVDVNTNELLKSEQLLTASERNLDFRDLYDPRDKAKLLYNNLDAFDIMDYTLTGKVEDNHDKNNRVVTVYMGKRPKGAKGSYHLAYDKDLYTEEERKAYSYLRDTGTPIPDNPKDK

[11] = tested on: Streptococcus; assay: Group A Streptococcus viability loss, dose response, counter-screen for streptokinase expression inhibitor project, luminescence, BacTiterGlo (AID 1915); assay type: functional, organism-based;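 also: potency for reduction of bacterial viability or growth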
[12] = Luminescence Cell-Based Dose Retest to Confirm Inhibitors of Cancer Stem Cells. [Related pubchem assays (depositor defined):AID2717, AID2721]; assay type: functional, Homo sapiens; settings: Homo sapiens

## COc1ccccc1CCC(=O)OCC(=O)Nc1cccc(S(=O)(=O)N2CCOCC2)c1
[1]
  EC50: > 195 µM (not active)

## O=S(=O)(c1cccc(-c2csc(-c3cccnc3)n2)c1)N1CCCCC1
[2]
  CC50: 28.9 µM (active)

## CCN(CC)CCNCc1cc(Cl)ccc1OCc1ccccc1F
[1]
  EC50: > 195 µM (not active)

## O=C(COC(=O)c1ccccc1C(=O)c1ccccc1)Nc1ccc(SC(F)F)cc1
[2]
  CC50: 16.4 µM (active)

## COc1ccc(-c2cc(C(=O)Nc3ccc(S(N)(=O)=O)cc3)c3ccccc3n2)cc1OC
[1]
  EC50: > 195 µM (not active)

## COc1cccc(-c2c(NC(C)=O)n(C)c3ccccc3c2=O)c1
[1]
  EC50: > 195 µM (not active)

## Cc1c(C(=O)NNC(=O)Nc2ccc([N+](=O)[O-])cc2)oc2ccccc12
[2]
  CC50: > 50 µM (active)

## Cc1cccc(OCC(=O)Nc2cccc(C(=O)NCC(C)C)c2)c1
[1]
  EC50: > 195 µM (not active)

## Cc1cc(-n2c(C)cc(C(=O)COC(=O)CNC3=NS(=O)(=O)c4ccccc43)c2C)no1
[2]
  CC50: 25.8 µM (active)

## O=C(CSc1ccc(-c2ccccn2)nn1)NC1CCCCC1
[1]
  EC50: > 195 µM (not active)

## Oc1nc(CCl)nc2cc(-c3ccc(Cl)cc3)sc12
[3]
  EC50: 6.96 µM (active)
[2]
  CC50: 14.5 µM (active)
[4]
  EC50: 1.14 µM (active)

## Cc1cc(C(=O)CSc2ccc(F)cc2)cc(C)c1OC(=S)N(C)C
[1]
  EC50: < 0.16 µM (active)

## COc1ccc(CCNC(=O)Cc2nn(C)c(=O)c3ccccc23)cc1OC
[1]
  EC50: > 195 µM (not active)

## CN1CCc2c(sc3c2c(=O)n(-c2ccc(Cl)cc2)c2nncn32)C1
[1]
  EC50: > 195 µM (not active)

## Cc1ccc(-c2nn3c(C)nnc3s2)cc1N
[2]
  CC50: 22.1 µM (active)

## CC(C)=CCN1CCN(Cc2cc(F)ccc2-n2nc(C)cc2C)CC1CCO (configuration not stated)
[1]
  EC50: > 195 µM (not active)

## CCOC(=O)c1ccc(N/C=C/C(=O)c2ccc(OC)cc2)cc1
[1]
  EC50: > 195 µM (not active)
[5]
  AC50: 6.31 µM (inconclusive)
[6]
  AC50: 2.82 µM (inconclusive)
[7]
  AC50: 22.4 µM (inconclusive)

## O=[N+]([O-])c1ccc2nc(SCc3ccccc3Cl)sc2c1
[2]
  CC50: 29 µM (active)

## CCn1cnc2cc(NCc3ccccc3Cl)ccc21
[2]
  CC50: 25 µM (active)

## CCC1(c2ccccc2)NC(=O)N(CC(=O)Nc2cc(S(=O)(=O)N3CCCCCC3)ccc2OC)C1=O (configuration not stated)
[2]
  CC50: 29.9 µM (active)

## CCS(=O)(=O)N1CCN(C(=O)c2ccccc2)CC1
[1]
  EC50: > 195 µM (not active)

## Cn1cc(/C=C2\SC(=O)N(c3ccc(O)cc3)C2=O)c2ccccc21
[2]
  CC50: 16 µM (active)

## Cc1cc(O)nc(CCl)n1
[1]
  EC50: > 195 µM (not active)

## CCOc1ccc(NCc2nnc(SCc3ccccc3Cl)n2-c2ccccc2)cc1
[1]
  EC50: > 195 µM (not active)
[8]
  AC50: 25.1 µM (inconclusive)

## Cc1cc(C2(c3cc(C)c(NC(=O)CN4CCOCC4)c(C)c3)CCCCC2)cc(C)c1NC(=O)CN1CCOCC1
[1]
  EC50: > 195 µM (not active)

## Cc1ccc(S(=O)(=O)N(C)CC(=O)N2CCc3ccccc32)cc1
[1]
  EC50: > 195 µM (not active)

## Cc1ccc2c(c1)c1c3n2CCN(C(=O)Cn2c(-c4ccccc4)noc2=O)C3CCC1 (configuration not stated)
[2]
  CC50: 38.8 µM (active)

## Cc1ccc(Nc2nc(N)c([N+](=O)[O-])c(NCc3ccco3)n2)cc1
[2]
  CC50: > 50 µM (active)

## Cc1ccnc(NC(c2ccsc2)c2ccc3ccc(C)nc3c2O)c1 (configuration not stated)
[3]
  EC50: 9.38 µM (active)
[9]
  EC50: 10.6 µM (active)
[1]
  EC50: > 195 µM (not active)
[10]
  EC50: > 150 µM (not active)
[4]
  EC50: 1.64 µM (active)
[11]
  EC50: 20.5 µM (active)

## CCC1CCCCN1CCCNC(=O)CSc1nc2nc(C)c(Cc3ccc(C)cc3)c(C)n2n1 (configuration not stated)
[1]
  EC50: > 195 µM (not active)

## CCOC(=O)c1c(NC(=O)COC(=O)c2nccnc2N)sc(C(=O)N(C)C)c1C
[1]
  EC50: > 195 µM (not active)

## O=C(NCc1nc2ccccc2[nH]1)C1=C[C@@H](c2csc3ccccc23)C[C@@H](OCc2ccc(CO)cc2)O1
[2]
  CC50: 39 µM (active)

## COn1c2c(c3c4no[n+]([O-])c4ccc31)CCCC2
[2]
  CC50: 16.5 µM (active)

## CC(C)(C)C1CCc2c(sc(NC(=O)CSc3nc[nH]n3)c2C#N)C1 (configuration not stated)
[12]
  AC50: 4.46 µM (active)
[1]
  EC50: > 195 µM (not active)

## CC(C)(C)c1ccc(OCc2ccc(C(=O)N/N=C/c3ccc([N+](=O)[O-])cc3)o2)cc1
[2]
  CC50: 23.3 µM (active)
